# From US10471046B2, “Method for treating, preventing, or reducing the risk of skin infection” (Melinta Subsidiary Corp., priority 2014, dated 2019)
# How the values were obtained:
# [1] = tested on: F. magna; assay: Agar dilution MIC (CLSI reference method); type: cell-based; settings: Finegoldia magna, ATCC15794; F. magna ATCC 15794
# [2] = tested on: Staphylococcus aureus; assay: MIC against ribosome-based resistance phenotypes; type: cell-based; settings: Staphylococcus aureus A7820, Lin-R (G2576U) + Mac-R (ErmC), read-out: Minimum Inhibitory Concentration (MIC)
# Description: (§1) Furthermore, the antibiotic compounds can be assayed for anti-proliferative or anti-infective properties on a cellular level. For example, where the target organism is a microorganism, the activity of compounds of interest can be assayed by growing the microorganisms of interest in media either containing or lacking the compound. Growth inhibition can be indicative that the molecule could be acting as a protein synthesis inhibitor. […] For this purpose, a panel of bacterial strains can be assembled to include a variety of target pathogenic species, some containing resistance mechanisms that have been characterized. Use of such a panel of organisms permits the determination of structure-activity relationships not only in regards to potency and spectrum, but also with a view to obviating resistance mechanisms.
# [3] = tested on: Enterococcus faecalis; assay: MIC against ribosome-based resistance phenotypes; type: cell-based; settings: ATCC29212, Enterococcus faecalis ATCC29212-P5, Lin-R (G2576U), read-out: Minimum Inhibitory Concentration (MIC)
# Description: as §1
# [4] = tested on: P. granulosum; assay: Broth microdilution MIC; type: cell-based; settings: P. granulosum ATCC 25746
# [5] = Long-term rat safety study; type: in vivo; settings: rat, in vivo, 100 mg/kg/day
# Description: There was 100% survival in all dose groups.
# [6] = tested on: Enterococcus faecium; assay: MIC against ribosome-based resistance phenotypes; type: cell-based; settings: Enterococcus faecium A6349; VanA + Lin-R (G2576U); read-out: Minimum Inhibitory Concentration (MIC)
# Description: as §1, with “mechanisms. The assays can be performed in microtiter trays according to conventional methodologies as published by The National Committee for Clinical Laboratory Standards (NCCLS) guidelines (NCCLS. M7-A5-Methods for Dilution Antimicrobial Susceptibility Tests for Bacteria That Grow Aerobically; Approved Standard-Fifth Edition. NCCLS Document M100-S12/M7 (ISBN 1-56238-394-9)).” for “mechanisms.”
# [7] = tested on: P. granulosum; assay: Agar dilution MIC (CLSI reference method); type: cell-based; settings: P. granulosum ATCC 25746
# [8] = tested on: P. acnes; assay: Agar dilution MIC (CLSI reference method); type: cell-based; settings: Cutibacterium acnes
# [9] = tested on: F. magna; assay: Broth microdilution MIC; type: cell-based; settings: Finegoldia magna, ATCC15794; F. magna ATCC 15794
# [10] = tested on: S. aureus; assay: Agar dilution MIC (CLSI reference method); type: cell-based; settings: Staphylococcus aureus, ATCC29213; S. aureus ATCC 29213
# Method: Susceptibility testing was performed by the agar dilution reference method (radezolid, linezolid, and clindamycin) and broth microdilution method (all agents) as described by the Clinical and Laboratory Standards Institute (CLSI).
# For the agar dilution method, Brucella agar (BBL, 211086) was prepared according to the manufacturer's instructions and cooled to 48-50° C. in a water bath. Once the agar was cooled, it was supplemented with 10 mL of hemin+vitamin K1 Solution (Remel, R450951), 1 mL of 1 mg/mL vitamin K1 working solution (Sigma, V3501), and 50 mL laked sheep blood (Remel, R54004). The media was dispensed into 50 mL centrifuge tubes and held at 48-50° C. […] The diluted antimicrobial agents were added to the dispensed media, gently mixed, and poured into sterile petri dishes. Once hardened, the plates were held in anaerobic jars at room temperature and used the following day. […]
# On the day of testing, a 0.5 McFarland equivalent of each isolate was prepared in Brucella broth with hemin+vitamin K1. […] BRU plates and those containing compound were incubated at 35° C. in an anaerobic environment for 24 hours, read, and re-incubated for an additional 24 hours followed by a final reading. […] Following incubation, MICs were determined as the lowest concentration showing a marked reduction in growth or no growth compared to the growth control plate.
# [11] = tested on: G. vaginalis; assay: Broth microdilution MIC; type: cell-based; settings: Gardnerella vaginalis
# [12] = tested on: G. vaginalis; assay: Agar dilution MIC (CLSI reference method); type: cell-based; settings: Gardnerella vaginalis
# [13] = tested on: B. fragilis; assay: Broth microdilution MIC; type: cell-based; settings: Bacteroides fragilis, ATCC25285; B. fragilis ATCC 25285
# [14] = ATCC14018, G. vaginalis ATCC 14018
# [15] = ATCC49145, G. vaginalis ATCC 49145
smiles,measurement,setting,value
"CC(=O)NC[C@H]1CN(c2ccc(N3CCOCC3)c(F)c2)C(=O)O1 [Linezolid, linezolid]",MIC,[1],2 mg/L
same,MIC,[2],64 mg/L
same,MIC,[3],32 mg/L
same,MIC,[4],1 mg/L
same,cellularity of sternal and femoral bone marrow,[5],decreased cellularity of sternal and femoral bone marrow
same,"red cell mass, absolute reticulocyte and neutrophil counts",[5],"decreased red cell mass, absolute reticulocyte and neutrophil counts"
same,MIC,[6],16 mg/L
same,MIC,[7],2 mg/L
same,MIC,"[8]; ATCC11827, P. acnes ATCC 11827",0.5 mg/L
same,MIC,"[8]; ATCC11828, P. acnes ATCC 11828",0.5 mg/L
same,MIC,"[8]; ATCC29399, P. acnes ATCC 29399",0.5 mg/L
same,MIC,[9],1 mg/L
same,MIC,[10],2 mg/L
same,MIC,[11]; [14],0.5 mg/L
same,MIC,[11]; [15],0.5 mg/L
same,MIC,[12]; [14],0.5 mg/L
same,MIC,[12]; [15],0.5 mg/L
same,MIC,[13],2 mg/L
